Consider 30 compounds from patent publication US20070299072A1, “KV1.5 POTASSIUM CHANNEL INHIBITORS” (Wyeth, priority 2006, published 2007).

Molecules are shown by their SMILES.

The inhibition is the drop in the measured response relative to a control, in per cent.

For the assay, the target named is T1, Kv1.5 (Homo sapiens, UniProt P22460).
T1 construct: expressed in transfected cells; host or cells: HEK or LTK- cells
T1 sequence (P22460 whole entry): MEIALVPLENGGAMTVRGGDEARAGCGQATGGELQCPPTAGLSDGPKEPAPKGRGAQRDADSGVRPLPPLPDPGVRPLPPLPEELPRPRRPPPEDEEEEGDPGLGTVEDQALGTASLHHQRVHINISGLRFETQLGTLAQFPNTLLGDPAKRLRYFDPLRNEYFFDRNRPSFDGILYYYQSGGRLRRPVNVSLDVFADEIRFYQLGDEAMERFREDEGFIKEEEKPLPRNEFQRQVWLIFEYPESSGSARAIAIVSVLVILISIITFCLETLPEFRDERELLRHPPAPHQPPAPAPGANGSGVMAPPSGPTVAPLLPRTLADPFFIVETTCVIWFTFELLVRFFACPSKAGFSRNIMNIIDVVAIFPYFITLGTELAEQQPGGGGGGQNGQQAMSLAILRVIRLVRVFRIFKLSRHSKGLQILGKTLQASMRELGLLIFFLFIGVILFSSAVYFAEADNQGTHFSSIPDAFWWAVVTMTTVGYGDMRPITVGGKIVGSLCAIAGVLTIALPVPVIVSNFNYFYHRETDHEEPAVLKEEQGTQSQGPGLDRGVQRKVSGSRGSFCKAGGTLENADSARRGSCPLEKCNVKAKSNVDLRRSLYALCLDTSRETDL
The assay is described as follows: Kv1.5 Patch Clamp EP (whole cell patch clamp; single point at 1 μM and IC50). It is filed as cell-based. Particulars: single point at 1.0 μM, Kv1.5 stably over expressed in HEK or LTK- cells. On the procedure:
The external solution is standard Tyrodes solution. […] Inhibition was measured at the end of the 1 second pulses and expressed relative to controls. Initial Kv1.5 inhibition is estimated by single point determinations done at 1 μM.
Background: In patch-clamp work, channel activity is measured electrically.
In turn, `COc1ccc(CCN2C(=O)C3(CCNCC3)N(C)C2c2ccc(C3CC3)cc2)cc1` (stereo not drawn) [Compound 1, 2-(4-Cyclopropylphenyl)-3-[2-(4-methoxyphenyl)ethyl]-1-methyl-1,3,8-triaza-spiro[4.5]decan-4-one] returned an inhibition at 1 µM of 2%.
`COc1ccc(CCN2C(=O)C3(CCNCC3)N(C)C2c2ccc(C(C)(C)C)cc2)cc1` (stereo not drawn) [Compound 2, 2-(4-tert-Butylphenyl)-3-[2-(4-methoxyphenyl)ethyl]-1-methyl-1,3,8-triaza-spiro[4.5]decan-4-one] registered an inhibition at 1 µM of 6%.
The compound `COc1ccc(CCN2C(=O)C3(CCNCC3)N(C)C2c2ccc(OC(F)F)cc2)cc1` (stereo not drawn) [Compound 3, 2-(4-Difluoromethoxyphenyl)-3-[2-(4-methoxyphenyl)ethyl]-1-methyl-1,3,8-triaza-spiro[4.5]decan-4-one] had an inhibition at 1 µM of 6%.
Next, `COc1ccc(CCN2C(=O)C3(CCN(C(=O)NC(C)C)CC3)N(C)C2c2ccc(OC)cc2)cc1` (stereo not drawn) [Compound 17, 2-(4-Methoxyphenyl)-3-[2-(4-methoxyphenyl)ethyl]-1-methyl-4-oxo-1,3,8-triaza-spiro[4.5]decane-8-carboxylic acid isopropylamide]: 31%; `COc1ccc(CCN2C(=O)C3(CCN(C(=O)N(C)C)CC3)N(C)C2c2ccc(C3CC3)cc2)cc1` (stereo not drawn) [Compound 18, 2-(4-Cyclopropylphenyl)-3-[2-(4-methoxyphenyl)ethyl]-1-methyl-4-oxo-1,3,8-triaza-spiro[4.5]decane-8-carboxylic acid dimethylamide]: 10%.
Take `COc1ccc(CCN2C(=O)C3(CCN(C(=O)OC(C)(C)C)CC3)N(C)C2c2ccc(C(C)(C)C)cc2)cc1` (stereo not drawn) [Compound 38, tert-Butyl 2-(4-tert-butylphenyl)-3-[2-(4-methoxyphenyl)ethyl]-1-methyl-4-oxo-1,3,8-triazaspiro[4.5]decane-8-carboxylate]: the inhibition at 1 µM came out at 28%.
Next, `COc1ccc(CCN2C(=O)C3(CCN(C(=O)OC(C)(C)C)CC3)N(C)C2c2ccc(OC(F)F)cc2)cc1` (stereo not drawn) [Compound 40, tert-Butyl 2-(4-difluoromethoxyphenyl)-3-[2-(4-methoxyphenyl)ethyl]-1-methyl-4-oxo-1,3,8-triazaspiro[4.5]decane-8-carboxylate]: 22%; `COC(=O)N1CCC2(CC1)C(=O)N(CCc1ccc(OC)cc1)C(c1ccc(C3CC3)cc1)N2C` (stereo not drawn) [Compound 41, Methyl 2-(4-cyclopropylphenyl)-3-[2-(4-methoxyphenyl)ethyl]-1-methyl-4-oxo-1,3,8-triazaspiro[4.5]decane-8-carboxylate]: 17%.
The compound `CN1C(c2ccc(C3CC3)cc2)N(CCCc2ccccc2)C(=O)C12CCNCC2` (stereo not drawn) [Compound 43, 2-(4-Cyclopropylphenyl)-1-methyl-3-(3-phenylpropyl) —1,3,8-triazaspiro[4.5]-decan-4-one] displayed an inhibition at 1 µM of 23%.
Consider `COc1ccc(CCN2C(=O)C3(CCN(CC4CC4)CC3)N(C)C2c2ccc(C3CC3)cc2)cc1` (stereo not drawn) [Compound 56, 8-Cyclopropylmethyl-2-(4-cyclopropylphenyl)-3-[2-(4-methoxyphenyl)ethyl]-1-methyl-1,3,8-triaza-spiro[4.5]decan-4-one], for which at 1 µM the inhibition was 12%.
For `COc1ccc(CCN2C(=O)C3(CCN(CC(N)=O)CC3)N(C)C2c2ccc(OC(F)F)cc2)cc1` (stereo not drawn) [Compound 57, 2-{2-(4-Difluoromethoxyphenyl)-3-[2-(4-methoxyphenyl)ethyl]-1-methyl-4-oxo-1,3,8-triaza-spiro[4.5]dec-8-yl}acetamide] the value was 25%; for `COc1ccc(CCN2C(=O)C3(CCN(C(=O)C(C)(C)N)CC3)N(C)C2c2ccc(C3CC3)cc2)cc1` (stereo not drawn) [Compound 59, 8-(2-Amino-2-methylpropionyl)-2-(4-cyclopropylphenyl)-3-[2-(4-methoxyphenyl)ethyl]-1-methyl-1,3,8-triaza-spiro[4.5]decan-4-one], 11%.
`COc1ccc(CCN2C(=O)C3(CCN(C(=O)OC(C)(C)C)CC3)NC2c2ccc(C(C)(C)C)cc2)cc1` (stereo not drawn) [Compound 60, 2-(4-tert-Butylphenyl)-3-[2-(4-methoxyphenyl)ethyl]-4-oxo-1,3,8-triaza-spiro[4.5]decane-8-carboxylic acid tert-butyl ester] registered an inhibition at 1 µM of 32%.
In turn, `COc1ccc(CCN2C(=O)C3(CCN(C(=O)OC(C)(C)C)CC3)NC2c2ccc(C3CC3)cc2)cc1` (stereo not drawn) [Compound 64, 2-(4-cyclopropylphenyl)-3-[2-(4-methoxyphenyl)ethyl]-4-oxo-1,3,8-triaza-spiro[4.5]decane-8-carboxylic acid tert-butyl ester] displayed an inhibition at 1 µM of 36%.
With `COc1ccc(CCN2C(=O)C3(CCNCC3)N(C)C2Cc2ccc(C(C)(C)C)cc2)cc1` (stereo not drawn) [Compound 69, 2-(4-tert-butylbenzyl)-3-[2-(4-methoxyphenyl)ethyl]-1-methyl-1,3,8-triazaspiro[4.5]decan-4-one], the inhibition at 1 µM was found to be 5%.
In the case of `COc1ccc(CCN2C(=O)C3(CCN(C(=O)C(C)(C)NC(=O)OC(C)(C)C)CC3)N(C)C2c2ccc(C3CC3)cc2)cc1` (stereo not drawn) [Compound 70, (2-{2-(4-cyclopropylphenyl)-3-[2-(4-methoxyphenyl)ethyl]-1-methyl-4-oxo-1,3,8-triaza-spiro[4.5]dec-8-yl}-1,1-dimethyl-2-oxo-ethyl)-carbamic acid tert-butyl ester], 1 µM produced 42% inhibition.
Regarding `COc1ccc(CCN2C(=O)C3(CCN(C(N)=O)CC3)N(C)C2c2ccc(OC)cc2)cc1` (stereo not drawn) [Compound 72, 2-(4-methoxyphenyl)-3-[2-(4-methoxyphenyl)ethyl]-1-methyl-4-oxo-1,3,8-triazaspiro[4.5]decane-8-carboxamide], the inhibition at 1 µM was determined as 16%.
For `COc1ccc(CCN2C(=O)C3(CCN(C(=O)OC(C)(C)C)CC3)NC2c2ccc(OC)cc2)cc1` (stereo not drawn) [Compound 73, tert-butyl 2-(4-methoxyphenyl)-3-[2-(4-methoxyphenyl)ethyl]-4-oxo-1,3,8-triazaspiro[4.5]decane-8-carboxylate] the value was 11%.
For `COc1ccc(CCN2C(=O)C3(CCN(C(N)=O)CC3)NC2c2ccc(C3CC3)cc2)cc1` (stereo not drawn) [Compound 74, 2-(4-cyclopropylphenyl)-3-[2-(4-methoxyphenyl)ethyl]-4-oxo-1,3,8-triazaspiro[4.5]decane-8-carboxamide] the value was 5%.
As to `COc1ccc(CCN2C(=O)C3(CCNCC3)NC2c2ccc(C(C)(C)C)cc2)cc1` (stereo not drawn) [Compound 76, 2-(4-tert-butylphenyl)-3-[2-(4-methoxyphenyl)ethyl]-1,3,8-triazaspiro[4.5]decan-4-one], the inhibition at 1 µM was found to be 5%.
For `CN1C(c2ccc(C3CC3)cc2)N(CCc2ccc(OC(F)(F)F)cc2)C(=O)C12CCN(C(=O)OC(C)(C)C)CC2` (stereo not drawn) [Compound 77, tert-butyl 2-(4-cyclopropylphenyl)-1-methyl-4-oxo-3-{2-[4-(trifluoromethoxy)phenyl]ethyl}-1,3,8-triazaspiro[4.5]decane-8-carboxylate] the value was 7%.
Take `CN1C(c2ccc(C3CC3)cc2)N(CCc2ccc(OC(F)(F)F)cc2)C(=O)C12CCNCC2` (stereo not drawn) [Compound 78, 2-(4-cyclopropylphenyl)-1-methyl-3-{2-[4-(trifluoromethoxy)phenyl]ethyl}-1,3,8-triazaspiro[4.5]decan-4-one]: at 1 µM the inhibition was 16%.
For the compound `COc1ccc(CCN2C(=O)C3(CCN(S(C)(=O)=O)CC3)NC2c2ccc(C3CC3)cc2)cc1` (stereo not drawn) [Compound 79, 2-(4-cyclopropylphenyl)-3-[2-(4-methoxyphenyl)ethyl]-8-(methylsulfonyl)-1,3,8-triazaspiro[4.5]decan-4-one], 1 µM produced 8% inhibition.
For the compound `COc1ccc(CCN2C(=O)C3(CCN(C(=N)N)CC3)N(C)C2c2ccc(C3CC3)cc2)cc1` (stereo not drawn) [Compound 84, 2-(4-cyclopropylphenyl)-3-[2-(4-methoxyphenyl)ethyl]-1-methyl-4-oxo-1,3,8-triazaspiro[4.5]decane-8-carboximidamide], at 1 µM the inhibition was 7%.
For `CN=C(N)N1CCC2(CC1)C(=O)N(CCc1ccc(OC)cc1)C(c1ccc(C3CC3)cc1)N2C` (stereo not drawn) [Compound 86, 2-(4-cyclopropylphenyl)-3-[2-(4-methoxyphenyl)ethyl]-N′,1-dimethyl-4-oxo-1,3,8-triazaspiro[4.5]decane-8-carboximidamide] the value was 4%; for `COc1ccc(C2NC3(CCN(C(=O)OC(C)(C)C)CC3)C(=O)N2CCCc2ccccc2)cc1` (stereo not drawn) [Compound 87, tert-butyl 2-(4-methoxyphenyl)-4-oxo-3-(3-phenylpropyl)-1,3,8-triazaspiro[4.5]decane-8-carboxylate], 5%.
`COc1ccc(CCN2C(=O)C3(CCN(C(=O)C4CC4)CC3)NC2c2ccc(C(C)(C)C)cc2)cc1` (stereo not drawn) [Compound 88, 2-(4-tert-butylphenyl)-8-(cyclopropylcarbonyl)-3-[2-(4-methoxyphenyl)ethyl]-1,3,8-triazaspiro[4.5]decan-4-one] had an inhibition at 1 µM of 13%.
For `COc1ccc(CCN2C(=O)C3(CCN(C(=O)[C@H]4CCCN4)CC3)N(C)C2c2ccc(C3CC3)cc2)cc1` (stereo partly drawn) [Compound 90, 2-(4-cyclopropylphenyl)-3-[2-(4-methoxyphenyl)ethyl]-1-methyl-8-D-prolyl-1,3,8-triazaspiro[4.5]decan-4-one] the value was 8%; for `COc1ccc(CCN2C(=O)C3(CCNCC3)NC2c2ccc(C3CC3)cc2)cc1` (stereo not drawn) [Compound 93, 2-(4-cyclopropylphenyl)-3-[2-(4-methoxyphenyl)ethyl]-1,3,8-triazaspiro[4.5]decan-4-one], 21%.
Regarding `CCS(=O)(=O)N1CCC2(CC1)NC(c1ccc(C(C)(C)C)cc1)N(CCc1ccc(OC)cc1)C2=O` (stereo not drawn) [Compound 94, 2-(4-tert-butylphenyl)-8-(ethylsulfonyl)-3-[2-(4-methoxyphenyl)ethyl]-1,3,8-triazaspiro[4.5]decan-4-one], testing at 1 µM gave an inhibition of 12%.
